Data published in the NIST ThermoML archive (doi:10.1021/je401020e).
Numbers after ± are expanded uncertainties.

Assays:
[1] = refractive index (Na D-line) (dimensionless); details: 298.15 K; 101.33 kPa; Liquid; Standard Abbe refractometry
[2] = Liquid; for mass density: 298.15 K, 101.33 kPa, Vibrating tube method; for vapor or sublimation pressure: Closed cell (Static) method

OCCCCO [1,4-butanediol]
refractive index [1]: 1.4449 ± 0.0003
mass density [2]: 1013.04 ± 0.05 kg/m3
vapor or sublimation pressure ([2]; 437.48 K): 10 ± 0.73 kPa
vapor or sublimation pressure ([2]; 454.63 K): 20 ± 0.99 kPa
vapor or sublimation pressure ([2]; 473.22 K): 40 ± 1.6 kPa

OCCO [1,2-ethanediol]
refractive index [1]: 1.4312 ± 0.0003
mass density [2]: 1107.92 ± 0.09 kg/m3
vapor or sublimation pressure ([2]; 405.97 K): 10 ± 0.73 kPa
vapor or sublimation pressure ([2]; 406.07 K): 10 ± 0.73 kPa
vapor or sublimation pressure ([2]; 423.18 K): 20 ± 0.99 kPa
vapor or sublimation pressure ([2]; 441.92 K): 40 ± 1.6 kPa

OCCOCCOCCO [triethylene glycol]
refractive index [1]: 1.4457 ± 0.0003
mass density [2]: 1120.7 ± 0.1 kg/m3
vapor or sublimation pressure ([2]; 480.39 K): 10 ± 0.88 kPa
vapor or sublimation pressure ([2]; 500.97 K): 20 ± 1.2 kPa
vapor or sublimation pressure ([2]; 524.64 K): 40 ± 2 kPa

OCCOCCO [diethylene glycol]
refractive index [1]: 1.4452 ± 0.0003
mass density [2]: 1112.56 ± 0.12 kg/m3
vapor or sublimation pressure ([2]; 445.07 K): 10 ± 0.82 kPa
vapor or sublimation pressure ([2]; 445.47 K): 10 ± 0.81 kPa
vapor or sublimation pressure ([2]; 464.36 K): 20 ± 1.1 kPa
vapor or sublimation pressure ([2]; 485.33 K): 40 ± 1.8 kPa
